From patent publication US20190367516A1 (Bayer Pharma Aktiengesellschaft, priority 2015, published 2019)
Read-outs that look alike come from different tables or passages of the source.

Target: T1, human M2 receptor (Homo sapiens, UniProt P08172)
T1 sequence (P08172 1-466): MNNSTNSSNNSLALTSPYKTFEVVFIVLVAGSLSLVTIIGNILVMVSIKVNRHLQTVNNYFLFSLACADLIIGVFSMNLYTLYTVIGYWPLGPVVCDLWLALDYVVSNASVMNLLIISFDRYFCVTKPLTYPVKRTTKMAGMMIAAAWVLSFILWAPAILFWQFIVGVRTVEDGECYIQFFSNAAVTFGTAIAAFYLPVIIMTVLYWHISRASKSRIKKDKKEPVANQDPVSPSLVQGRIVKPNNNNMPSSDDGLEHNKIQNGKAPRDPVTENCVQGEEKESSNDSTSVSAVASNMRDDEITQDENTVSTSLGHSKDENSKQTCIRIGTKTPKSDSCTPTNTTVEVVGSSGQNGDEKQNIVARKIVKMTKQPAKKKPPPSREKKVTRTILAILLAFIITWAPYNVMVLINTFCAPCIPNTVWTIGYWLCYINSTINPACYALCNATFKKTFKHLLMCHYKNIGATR

[1] = Receptor activity EC50, M2-GIRK1/4 activation test, acetylcholine at EC20, allosteric potency, in some cases mean values from two or more determinations
[2] = Receptor activity EC50, allosteric potency at EC20 acetylcholine, M2-GIRK1/4 reporter cells, in some cases mean of two or more determinations
[3] = read-out: Efficiency, boosting of the acetylcholine effect at EC20 acetylcholine concentration, M2-GIRK1/4 reporter cells

EC50 [1] | Structure (SMILES) | other results
40 nM | CC(C)(CC(F)(F)F)NC(=O)c1cn(-c2c(F)cc(F)cc2F)c2nc(N3CCN(CCO)C3=O)ccc2c1=O [Example 375, 7-[3-(2-Hydroxyethyl)-2-oxoimidazolidin-1-yl]-4-oxo-N-(4,4,4-trifluoro-2-methylbutan-2-yl)-1-(2,4,6-trifluorophenyl)-1,4-dihydro-1,8-naphthyridine-3-carboxamide] | –
16 nM | CC(C)(CC(F)(F)F)NC(=O)c1cn(-c2c(F)cc(F)cc2F)c2nc(N3CCNC3=O)ccc2c1=O [Example 376, 4-Oxo-7-(2-oxoimidazolidin-11-yl)-N-(4,4,4-trifluoro-2-methylbutan-2-yl)-1-(2,4,6-trifluorophenyl)-1,4-dihydro-1,8-naphthyridine-3-carboxamide] | –
18 nM | CC(C)(CC(F)(F)F)NC(=O)c1cn(-c2c(F)cc(F)cc2F)c2nc(N3CCCN(CCO)C3=O)ccc2c1=O [Example 383, 7-[3-(2-Hydroxyethyl)-2-oxotetrahydropyrimidin-1(2H)-yl]-4-oxo-N-(4,4,4-trifluoro-2-methylbutan-2-yl)-1-(2,4,6-trifluorophenyl)-1,4-dihydro-1,8-naphthyridine-3-carboxamide] | –
8 nM | CC(C)(CC(F)(F)F)NC(=O)c1cn(-c2c(F)cc(F)cc2Cl)c2nc(N3C[C@@H](O)[C@H](O)C3)ccc2c1=O [Example 391, 1-(2-Chloro-4,6-difluorophenyl)-7-[(3R,4R)-3,4-dihydroxypyrrolidin-1-yl]-4-oxo-N-(4,4,4-trifluoro-2-methylbutan-2-yl)-1,4-dihydro-1,8-naphthyridine-3-carboxamide] | –
7 nM | CC(C)(CC(F)(F)F)NC(=O)c1cn(-c2c(F)cc(F)cc2Cl)c2nc(N3CCNC3=O)ccc2c1=O [Example 394, 1-(2-Chloro-4,6-difluorophenyl)-4-oxo-7-(2-oxoimidazolidin-1-yl)-N-(4,4,4-trifluoro-2-methylbutan-2-yl)-1,4-dihydro-1,8-naphthyridine-3-carboxamide] | –

The next lines start with the compound.

Structure (SMILES) | EC50 [1] | other results
C[C@@H](O)CNc1ccc2c(=O)c(C(=O)N[C@@H](C3CC3)C(F)(F)F)cn(-c3c(F)cc(F)cc3F)c2n1 [Example 378, N-[(1S)-1-Cyclopropyl-2,2,2-trifluoroethyl]-7-{[(2R)-2-hydroxypropyl]amino}-4-oxo-1-(2,4,6-trifluorophenyl)-1,4-dihydro-1,8-naphthyridine-3-carboxamide] | 81 nM | –
CC(C)(NC(=O)c1cn(-c2c(F)cc(F)cc2F)c2nc(N3C[C@@H](O)[C@H](O)C3)ccc2c1=O)C1CC1 [Example 379, N-(2-Cyclopropylpropan-2-yl)-7-[(3R,4R)-3,4-dihydroxypyrrolidin-1-yl]-4-oxo-1-(2,4,6-trifluorophenyl)-1,4-dihydro-1,8-naphthyridine-3-carboxamide] | 35 nM | –
N#CN1CCCN(c2ccc3c(=O)c(C(=O)N[C@@H](C4CC4)C(F)(F)F)cn(-c4c(F)cc(F)cc4F)c3n2)C1=O [Example 380, 7-(3-Cyano-2-oxotetrahydropyrimidin-1(2H)-yl)-N-[(1S)-1-cyclopropyl-2,2,2-trifluoroethyl]-4-oxo-1-(2,4,6-trifluorophenyl)-1,4-dihydro-1,8-naphthyridine-3-carboxamide] | 46 nM | –
C[C@@H]1CN(c2ccc3c(=O)c(C(=O)N[C@@H](C)COC(F)(F)F)cn(-c4c(F)cc(F)cc4F)c3n2)C(=O)N1 [Example 381, 7-[(4R)-4-Methyl-2-oxoimidazolidin-1-yl]-4-oxo-N-[(2S)-1-(trifluoromethoxy)propan-2-yl]-1-(2,4,6-trifluorophenyl)-1,4-dihydro-1,8-naphthyridine-3-carboxamide] | 23 nM | –
CC(C)(NC(=O)c1cn(-c2c(F)cc(F)cc2F)c2nc(N3CCCN(CCO)C3=O)ccc2c1=O)C(F)F [Example 382, N-(1,1-Difluoro-2-methylpropan-2-yl)-7-[3-(2-hydroxyethyl)-2-oxotetrahydropyrimidin-1(2H)-yl]-4-oxo-1-(2,4,6-trifluorophenyl)-1,4-dihydro-1,8-naphthyridine-3-carboxamide] | 72 nM | –
O=C(N[C@H](C1CC1)C(F)(F)F)c1cn(-c2c(Cl)cc(F)cc2Cl)c2nc(N3C[C@@H](O)CC3=O)ccc2c1=O [Example 387, N-[(1R)-1-Cyclopropyl-2,2,2-trifluoroethyl]-1-(2,6-dichloro-4-fluorophenyl)-7-[(4S)-4-hydroxy-2-oxopyrrolidin-1-yl]-4-oxo-1,4-dihydro-1,8-naphthyridine-3-carboxamide] | 42 nM | –
CC[C@@H](NC(=O)c1cn(-c2c(Cl)cc(F)cc2Cl)c2nc(N3C[C@@H](O)CC3=O)ccc2c1=O)C(F)(F)F [Example 388, 1-(2,6-Dichloro-4-fluorophenyl)-7-[(4S)-4-hydroxy-2-oxopyrrolidin-1-yl]-4-oxo-N-[(2R)-1,1,1-trifluorobutan-2-yl]-1,4-dihydro-1,8-naphthyridine-3-carboxamide] | 52 nM | Emax (read-out: Efficiency): 89%
CC[C@H](NC(=O)c1cn(-c2c(Cl)cc(F)cc2Cl)c2nc(N3C[C@@H](O)CC3=O)ccc2c1=O)C(F)(F)F [Example 389, 1-(2,6-Dichloro-4-fluorophenyl)-7-[(4S)-4-hydroxy-2-oxopyrrolidin-1-yl]-4-oxo-N-[(2S)-1,1,1-trifluorobutan-2-yl]-1,4-dihydro-1,8-naphthyridine-3-carboxamide] | 38 nM | Emax (read-out: Efficiency): 85.5%
C[C@@H]1C[C@](C)(O)CN1c1ccc2c(=O)c(C(=O)N[C@@H](C)C(F)(F)F)cn(-c3c(F)cc(F)cc3Cl)c2n1 [Example 390, 1-(2-Chloro-4,6-difluorophenyl)-7-[(2R,4S)-4-hydroxy-2,4-dimethylpyrrolidin-1-yl]-4-oxo-N-[(2S)-1,1,1-trifluoropropan-2-yl]-1,4-dihydro-1,8-naphthyridine-3-carboxamide] | 14 nM | –
CC(C)(CC(F)(F)F)NC(=O)c1cn(-c2c(F)cc(F)cc2Cl)c2nc(N3C[C@@H](O)CC3=O)ccc2c1=O [Example 395, 1-(2-Chloro-4,6-difluorophenyl)-7-[(4S)-4-hydroxy-2-oxopyrrolidin-1-yl]-4-oxo-N-(4,4,4-trifluoro-2-methylbutan-2-yl)-1,4-dihydro-1,8-naphthyridine-3-carboxamide] | – | EC50 [2]: 7 nM; Emax [3]: 100%
O=C(NC12CC(F)(C1)C2)c1cn(-c2c(F)cc(F)cc2Cl)c2nc(N3C[C@@H](O)CC3=O)ccc2c1=O [Example 397, 1-(2-Chloro-4,6-difluorophenyl)-N-(3-fluorobicyclo[1.1.1]pent-1-yl)-7-[(4S)-4-hydroxy-2-oxopyrrolidin-1-yl]-4-oxo-1,4-dihydro-1,8-naphthyridine-3-carboxamide] | – | EC50 [2]: 32 nM; Emax [3]: 90%
O=C(NC12CC(F)(C1)C2)c1cn(-c2c(F)cc(F)cc2Cl)c2nc(N3C[C@@H](O)[C@H](O)C3)ccc2c1=O [Example 401, 1-(2-Chloro-4,6-difluorophenyl)-7-[(3R,4R)-3,4-dihydroxypyrrolidin-1-yl]-N-(3-fluorobicyclo[1.1.1]pent-1-yl)-4-oxo-1,4-dihydro-1,8-naphthyridine-3-carboxamide] | – | EC50 [2]: 41 nM; Emax [3]: 95.5%
CC(C)(NC(=O)c1cn(-c2c(F)cc(F)cc2F)c2nc(N3C[C@@H](O)[C@H](O)C3)ccc2c1=O)C(F)(F)F [Example 403] | – | EC50 [2]: 32 nM; Emax [3]: 100%
